Assay results published in patent US8372848B2, “Melanin-concentrating hormone receptor antagonists and methods of use” (Mixture Sciences, Inc., priority 2004, dated 2013).
“Also recorded” adds a separate entry of the source.

Key:
[1] = biological target: T1, prolactin releasing peptide (PrRP) receptor (Homo sapiens, UniProt P49683); assay: Selectivity versus PrRP receptor; format: cell-based
T1 sequence (P49683 1-370): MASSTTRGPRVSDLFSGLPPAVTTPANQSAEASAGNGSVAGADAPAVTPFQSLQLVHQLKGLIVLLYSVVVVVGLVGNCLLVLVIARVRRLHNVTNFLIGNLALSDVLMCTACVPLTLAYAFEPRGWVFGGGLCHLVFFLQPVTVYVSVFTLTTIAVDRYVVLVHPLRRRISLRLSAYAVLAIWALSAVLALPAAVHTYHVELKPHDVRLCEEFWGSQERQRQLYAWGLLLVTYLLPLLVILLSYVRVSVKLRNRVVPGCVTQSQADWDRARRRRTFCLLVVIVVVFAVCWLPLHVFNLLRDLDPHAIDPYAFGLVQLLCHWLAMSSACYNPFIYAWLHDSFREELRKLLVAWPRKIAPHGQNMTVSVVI

[2] = test system: rats; assay: Motor activity in rats, Example VI; format: in vivo, rat; details: 10 nM i.c.v.
Experimental: Sprague Dawley rats were randomly divided into two groups (Group I and Group II) of eight (8) rats each. The rats in Group I (n=8) received 0.9% saline by i.c.v. injection. The rats in Group II (n−8) received 10 nM TPI 1361-17 (Formula IV) by i.c.v. injection. […] Once each day thereafter, for a total of ______ days, the rats were taken into a test room, allowed to acclimatize for ______ minutes, then placed in four identical chambers (43 cm×43 cm×30.5 cm) that were connected to a common interface and computer (MED Associates, Inc., St. Albans, Vt.). Horizontal movement of the rats was monitored by 16 photobeams per side evenly spaced along each wall of two adjacent sides of each test chamber.

[3] = biological target: T2, MCH1R (Rattus norvegicus, UniProt P97639); assay: Library screening: inhibition of 30 nM MCH-induced Ca2+ mobilization in CHO cells expressing MCH1R; format: cell-based; details: five concentrations, ten-fold dilutions starting at 10 µM
T2 construct: expressed in transfected cells; host or cells: CHO
T2 sequence (P97639 whole entry): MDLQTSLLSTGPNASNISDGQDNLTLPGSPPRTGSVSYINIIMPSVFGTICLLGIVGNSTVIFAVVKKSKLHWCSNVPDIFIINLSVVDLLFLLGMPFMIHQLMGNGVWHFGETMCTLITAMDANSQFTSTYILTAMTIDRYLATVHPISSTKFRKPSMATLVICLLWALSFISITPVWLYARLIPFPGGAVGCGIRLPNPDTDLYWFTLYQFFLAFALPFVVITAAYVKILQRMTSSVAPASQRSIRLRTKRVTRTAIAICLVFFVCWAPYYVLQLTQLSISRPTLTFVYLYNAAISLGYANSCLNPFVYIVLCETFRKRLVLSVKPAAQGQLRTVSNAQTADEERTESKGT
Experimental: A total of thirteen heterocyclic or peptidomimetics PS-SCLs containing 8,136,870 individual compounds were tested (Table 1). Most libraries were generated in a PS format by using 40˜50 amino acids at each of the R1 and R2 positions, and 40˜80 carboxylic acids at the R3 position. A sample set of PS-SCLs was screened initially, sub-libraries with defined R3 positions and a mixture of building blocks at each of the other two positions were prepared (all compounds in the library are represented). Each sub-library was composed of 40˜80 mixtures containing 1,500˜3,200 individual compounds. […]
Each mixture was assayed in duplicate in three separate assays at three concentrations (1, 0.1 and 0.01 µg/ml) (FIG. 1B). MCH1R inhibition was calculated as the percent decrease in intracellular Ca^2+ mobilization in MCH1R expressing CHO cells induced by 30 nM MCH in the presence or absence of the mixture. […]
Transfected […] cells seeded on black-walled 96-well plates (Sigma, St Louis USA) were loaded for 1 h at 37° C. with Ca^2+-sensitive fluorescent dye, fluo-4 (Molecular Device, CA) in Hanks' balanced salt solution containing 20 mM HEPES (pH 7.4). The level of [Ca^2+]i was then monitored using a FLIPR system (Fluorometric Imaging Plate Reader; Molecular Devices, San Francisco, Calif.). […] Data were expressed as fluorescence (arbitrary units) versus time.

[4] = biological target: kappa opioid receptor (dynorphin) (Homo sapiens, UniProt P41145); assay: Selectivity versus kappa opioid receptor; format: cell-based
kappa opioid receptor (dynorphin), sequence (P41145 whole entry): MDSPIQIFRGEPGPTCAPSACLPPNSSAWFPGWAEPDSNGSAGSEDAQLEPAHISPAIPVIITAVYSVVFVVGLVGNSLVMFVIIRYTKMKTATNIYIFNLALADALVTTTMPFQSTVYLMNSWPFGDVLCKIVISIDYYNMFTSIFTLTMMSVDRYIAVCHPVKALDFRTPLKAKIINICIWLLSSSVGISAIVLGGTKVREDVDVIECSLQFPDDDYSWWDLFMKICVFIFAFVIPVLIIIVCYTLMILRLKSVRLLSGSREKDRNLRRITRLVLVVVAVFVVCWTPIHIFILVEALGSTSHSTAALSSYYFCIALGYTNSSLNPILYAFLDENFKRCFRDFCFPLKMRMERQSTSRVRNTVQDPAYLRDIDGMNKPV

[5] = biological target: human MCH2R (Homo sapiens, UniProt Q969V1); assay: Selectivity versus human MCH2R; format: cell-based
human MCH2R, sequence (Q969V1 whole entry): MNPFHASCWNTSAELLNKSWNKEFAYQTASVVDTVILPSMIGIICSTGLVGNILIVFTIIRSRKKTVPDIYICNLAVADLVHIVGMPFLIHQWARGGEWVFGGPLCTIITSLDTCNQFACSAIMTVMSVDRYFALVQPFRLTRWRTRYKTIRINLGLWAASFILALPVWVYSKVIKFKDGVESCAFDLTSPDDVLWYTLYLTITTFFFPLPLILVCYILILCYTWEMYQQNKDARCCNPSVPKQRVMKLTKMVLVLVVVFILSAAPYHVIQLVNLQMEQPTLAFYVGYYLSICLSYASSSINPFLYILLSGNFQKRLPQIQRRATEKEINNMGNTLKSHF

[6] = biological target: T3, orexin 1R (Homo sapiens, UniProt O43613); assay: Selectivity versus orexin 1R; format: cell-based
T3 sequence (O43613 1-425): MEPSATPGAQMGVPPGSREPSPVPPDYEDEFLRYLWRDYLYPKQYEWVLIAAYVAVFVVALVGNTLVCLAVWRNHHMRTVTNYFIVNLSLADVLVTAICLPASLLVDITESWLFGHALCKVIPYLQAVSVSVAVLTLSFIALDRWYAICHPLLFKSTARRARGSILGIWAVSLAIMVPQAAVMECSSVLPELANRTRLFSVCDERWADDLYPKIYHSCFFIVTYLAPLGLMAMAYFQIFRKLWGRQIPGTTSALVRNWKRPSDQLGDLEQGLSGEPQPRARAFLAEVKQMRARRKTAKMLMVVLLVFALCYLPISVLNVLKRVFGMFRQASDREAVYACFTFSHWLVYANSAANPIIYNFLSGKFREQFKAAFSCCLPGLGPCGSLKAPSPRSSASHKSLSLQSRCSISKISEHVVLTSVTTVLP

Selectivity for MCH1R compared with PrRP receptor [1]: more than 1,000 fold
Motor activity versus control (distance traveled, time resting, time ambulatory, ambulatory counts, time stereotypic, stereotypic counts) [2]: no significant differences
IC50 inhibiting 30 nM MCH-induced Ca2+ mobilization, 84 individual compounds [3]: highest affinity
Selectivity for MCH1R compared with kappa opioid receptor [4]: more than 1,000 fold
Selectivity for MCH1R compared with human MCH2R [5]: more than 1,000 fold
Selectivity for MCH1R compared with orexin 1R [6]: more than 1,000 fold
SMILES: C[C@@H](CNCc1ccccc1)N1C[C@H](CCCNC(=N)N)N(CCc2cccc(F)c2)C1=S [TPI 1361-17, N-(3-{(4S)-1-[(1S)-2-(benzylamino)-1-methylethyl]-3-[2-(3-fluorophenyl)ethyl]-2-thioxoimidazolidin-4-yl}propyl)guanidine]
Affinity to / antagonism of human MCH2R [5]: no affinity; also recorded: not appreciably antagonize
